Test results from US11780826B2 (Amgen Inc., priority 2017, dated 2023).

Test system: Bovine cardiac myofibrils
Experiment: In vitro model of dose-dependent myofibril ATPase modulation (AC1.4, pyruvate kinase/lactate dehydrogenase-coupled ATPase assay at pCa25)
Type: biochemical
Settings: concentration at which ATPase activity was 1.4-fold higher than the bottom of the dose curve, mean of a minimum of two independent tests
How it was run: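 ATP turnover tracked as NADH absorbance loss at 340 nm, coupled via pyruvate kinase/lactate dehydrogenase, with 1 mM ATP, 2 mM MgCl2 and 12 mM K-PIPES at pH 6.80 (22° C) under EGTA/CaCl2 calcium buffering. Substrate was detergent-treated bovine cardiac myofibrils; 4-parameter curve fit, AC1.4 averaged over at least two runs.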

AC1.4 | Structure (SMILES)
0.8424 µM | N#CC1CN(S(=O)(=O)N2CCC[C@H](C(=O)N3CCC[C@@H]3C(=O)NCc3cc(F)cc(Cl)c3)C2)C1 [Example 313, N-(3-chloro-5-fluorobenzyl)-1-(((3S)-1-((3-cyano-1-azetidinyl)sulfonyl)-3-piperidinyl)carbonyl)-D-prolinamide]
0.3365 µM | NC(=O)C1(c2cccc(C(=O)N3[C@@H](C(=O)N[C@@H](c4cc(F)c(Cl)cc4F)C4COC4)C[C@H]4C[C@H]43)c2)CC1 [Example 184, (1R,3R,5R)-2-(3-(1-carbamoylcyclopropyl)benzoyl)-N-((R)-(4-chloro-2,5-difluorophenyl)(3-oxetanyl)methyl)-2-azabicyclo[3.1.0]hexane-3-carboxamide]
0.0546 µM | CCNc1ccc(S(C)(=O)=O)cc1C(=O)N1[C@@H](C(=O)N[C@@H](c2ccc(C(F)(F)F)cc2F)C2CC2)C[C@H]2C[C@H]21 [Example 50, (1R,3R,5R)-N-((R)-cyclopropyl(2-fluoro-4-(trifluoromethyl)phenyl)methyl)-2-(2-(ethylamino)-5-(methylsulfonyl)benzoyl)-2-azabicyclo[3.1.0]hexane-3-carboxamide]
2.38 µM | N#CC1CC(S(=O)(=O)c2cccc(C(=O)N3CCC[C@@H]3C(=O)NCc3ccc(C(F)(F)F)nc3)c2)C1 (stereo partly drawn) [Example 507, (R)-1-(3-((3-cyanocyclobutyl)sulfonyl)benzoyl)-N-((6-(trifluoromethyl)pyridin-3-yl)methyl)pyrrolidine-2-carboxamide]
0.02875 µM | N#CC1CN(S(=O)(=O)c2cccc(C(=O)N3CCC[C@@H]3C(=O)N[C@H](CO)c3ccc(Cl)c(F)c3)c2)C1 [Example 24, N-((1S)-1-(4-chloro-3-fluorophenyl)-2-hydroxyethyl)-1-(3-((3-cyano-1-azetidinyl)sulfonyl)benzoyl)-D-prolinamide]
0.03275 µM | N#CC1CN(S(=O)(=O)c2cccc(C(=O)N3CCC[C@@H]3C(=O)N[C@H](CO)c3ccc(C(F)(F)F)cc3)c2)C1 [Example 31, 1-(3-((3-cyano-1-azetidinyl)sulfonyl)benzoyl)-N-((1S)-2-hydroxy-1-(4-(trifluoromethyl)phenyl)ethyl)-D-prolinamide]
4.262 µM | O=C(N[C@@H](c1cc(F)c(Cl)cc1F)C1CC1)[C@H]1C[C@@H](O)CN1C(=O)c1cncc(C(F)(F)F)c1 [Example 641, (4R)-N-((R)-(4-chloro-2,5-difluorophenyl)(cyclopropyl)methyl)-4-hydroxy-1-((5-(trifluoromethyl)-3-pyridinyl)carbonyl)-D-prolinamide]
0.6321 µM | N#CC1CN(S(=O)(=O)N2CCN[C@H](C(=O)N3CCC[C@@H]3C(=O)NCc3ccc(Cl)c(Cl)c3)C2)C1 [Example 257, 1-(((2S)-4-((3-cyano-1-azetidinyl)sulfonyl)-2-piperazinyl)carbonyl)-N-(3,4-dichlorobenzyl)-D-prolinamide]
0.2351 µM | Cc1cc(C(=O)N2[C@@H](C(=O)N[C@@H](c3cc(F)c(Cl)cc3F)C3COC3)C[C@H]3C[C@H]32)cc(S(C)(=O)=O)c1 [Example 140, (1R,3R,5R)-N-((R)-(4-chloro-2,5-difluorophenyl)(3-oxetanyl)methyl)-2-(3-methyl-5-(methylsulfonyl)benzoyl)-2-azabicyclo[3.1.0]hexane-3-carboxamide]
3.9185 µM | CC[C@@H](NC(=O)[C@H]1CCCN1C(=O)c1cccc(S(C)(=O)=O)c1)c1ccc(C(F)(F)F)cc1F [Example 630, N-((1R)-1-(2-fluoro-4-(trifluoromethyl)phenyl)propyl)-1-(3-(methylsulfonyl)benzoyl)-D-prolinamide]
0.639 µM | N#CC1CN(S(=O)(=O)c2cccc(C(=O)N3CCC[C@@H]3C(=O)NCc3ccc(Cl)nc3)c2)C1 [Example 260, N-((6-chloro-3-pyridinyl)methyl)-1-((3-((3-cyano-1-azetidinyl)sulfonyl)phenyl)carbonyl)-D-prolinamide]
4.735 µM | C[C@@]1(C(=O)N[C@@H](c2cc(F)c(C(F)(F)F)cc2F)C2CC2)CCN1C(=O)c1cccc(S(C)(=O)=O)c1 [Example 670, (2S)-N-((R)-cyclopropyl(2,5-difluoro-4-(trifluoromethyl)phenyl)methyl)-2-methyl-1-(3-(methylsulfonyl)benzoyl)-2-azetidinecarboxamide]
0.9511 µM | O=C(NCc1ccc(C(F)(F)F)cc1)[C@H]1CCCN1C(=O)[C@H]1CCCN(S(=O)(=O)N2CCC2c2ccccc2)C1 (stereo partly drawn) [Example 339, 1-(((3S)-1-(((2R)-2-phenyl-1-azetidinyl)sulfonyl)-3-piperidinyl)carbonyl)-N-(4-(trifluoromethyl)benzyl)-D-prolinamide,1-(((3S)-1-(((2S)-2-phenyl-1-azetidinyl)sulfonyl)-3-piperidinyl)carbonyl)-N-(4-(trifluoromethyl)benzyl)-D-prolinamide]
7.3175 µM | C#CCN(C)S(=O)(=O)c1cccc(C(=O)N2CCC[C@@H]2C(=O)N[C@H](C)c2ccc(C(F)(F)F)cc2)c1 [Example 749, 1-(3-(methyl(2-propyn-1-yl)sulfamoyl)benzoyl)-N-((1R)-1-(4-(trifluoromethyl)phenyl)ethyl)-D-prolinamide]
6.2885 µM | CS(=O)(=O)c1cccc(C(=O)N2CCC[C@@H]2C(=O)N[C@@H](c2ccc(C(F)F)cc2F)C2CC2)c1 [Example 721, N-((R)-cyclopropyl(4-(difluoromethyl)-2-fluorophenyl)methyl)-1-(3-(methylsulfonyl)benzoyl)-D-prolinamide]
0.04337 µM | N#CC1CN(S(=O)(=O)c2cccc(C(=O)N3CCC[C@@H]3C(=O)NCc3ccc(Cl)cc3)c2)C1 [Example 43, N-(4-chlorobenzyl)-1-((3-((3-cyano-1-azetidinyl)sulfonyl)phenyl)carbonyl)-D-prolinamide]
0.2198 µM | N#CC1CN(S(=O)(=O)N2CCC[C@H](C(=O)N3CCC[C@@H]3C(=O)NC(CO)c3ccc(C(F)(F)F)cc3)C2)C1 (stereo partly drawn) [Example 134, 1-(((3S)-1-((3-cyano-1-azetidinyl)sulfonyl)-piperidinyl)carbonyl)-N-(-2-hydroxy-1-(4-(trifluoromethyl)phenyl)ethyl)-D-prolinamide]
1.7085 µM | N#CC1CN(S(=O)(=O)N2CCC[C@H](C(=O)N3CCC[C@@H]3C(=O)NCc3ccc(F)cc3)C2)C1 [Example 437, 1-(((3S)-1-((3-cyano-1-azetidinyl)sulfonyl)-3-piperidinyl)carbonyl)-N-(4-fluorobenzyl)-D-prolinamide]
6.168 µM | Cc1ccc(S(N)(=O)=O)cc1C(=O)N1CCC[C@@H]1C(=O)N[C@@H](c1ccc(C(F)(F)F)cc1F)C1CC1 [Example 716, N-((R)-cyclopropyl(2-fluoro-4-(trifluoromethyl)phenyl)methyl)-1-(2-methyl-5-sulfamoylbenzoyl)-D-prolinamide]
1.9675 µM | O=C(NCc1ccc(C(F)(F)F)cc1)[C@H]1CCCN1C(=O)[C@H]1CCCN(S(=O)(=O)N2CC(O)(C(F)(F)F)C2)C1 [Example 467, 1-(((3S)-1-((3-hydroxy-3-(trifluoromethyl)-1-azetidinyl)sulfonyl)-3-piperidinyl)carbonyl)-N-(4-(trifluoromethyl)benzyl)-D-prolinamide]
1.4525 µM | N#CC1CN(S(=O)(=O)N2CCC[C@H](C(=O)N3CCC[C@@H]3C(=O)N[C@H](CO)c3cccc(C(F)(F)F)c3)C2)C1 [Example 404, 1-(((3S)-1-((3-cyano-1-azetidinyl)sulfonyl)-3-piperidinyl)carbonyl)-N-((1S)-2-hydroxy-1-(3-(trifluoromethyl)phenyl)ethyl)-D-prolinamide]
9.2425 µM | CC(C)(O)c1cccc(C(=O)N2CCC[C@@H]2C(=O)N[C@@H](c2ccc(C(F)(F)F)cc2F)C2CC2)c1 [Example 794, N-((R)-cyclopropyl(2-fluoro-4-(trifluoromethyl)phenyl)methyl)-1-(3-(2-hydroxy-2-propanyl)benzoyl)-D-prolinamide]
0.164 µM | Cc1ccc(CNC(=O)[C@H]2CCCN2C(=O)c2cccc(S(=O)(=O)N3CC(C#N)C3)c2)cc1 [Example 106, 1-((3-((3-cyano-1-azetidinyl)sulfonyl)phenyl)carbonyl)-N-(4-methylbenzyl)-D-prolinamide]
4.377 µM | COc1ccc(S(C)(=O)=O)cc1C(=O)N1CCCC[C@@H]1C(=O)N[C@@H](c1ccc(C(F)(F)F)cc1F)C1CC1 [Example 646, (2R)-N-((R)-cyclopropyl(2-fluoro-4-(trifluoromethyl)phenyl)methyl)-1-(2-methoxy-5-(methylsulfonyl)benzoyl)-2-piperidinecarboxamide]
4.351 µM | O=C(NCc1ccc(C(F)(F)F)cc1)[C@H]1CCCN1C(=O)[C@H]1CCCN(S(=O)(=O)NC2CS(=O)(=O)C2)C1 [Example 645, 1-(((3S)-1-((l,l-dioxido-3-thietanyl)sulfamoyl)-3-piperidinyl)carbonyl)-N-(4-(trifluoromethyl)benzyl)-D-prolinamide]
0.01905 µM | N#CC1CN(S(=O)(=O)c2cccc(C(=O)N3CCC[C@@H]3C(=O)N[C@H](CC(F)(F)F)c3ccc(C(F)(F)F)cc3)c2)C1 [Example 7, 1-(3-((3-cyano-1-azetidinyl)sulfonyl)benzoyl)-N-((1R)-3,3,3-trifluoro-1-(4-(trifluoromethyl)phenyl)propyl)-D-prolinamide]
0.9294 µM | Cc1ccc(CNC(=O)[C@H]2CCCN2C(=O)[C@@H]2CN(S(=O)(=O)N3CC(C#N)C3)CCN2)cc1F [Example 334, 1-(((2S)-4-((3-cyano-1-azetidinyl)sulfonyl)-2-piperazinyl)carbonyl)-N-(3-fluoro-4-methylbenzyl)-D-prolinamide]

Structure (SMILES) | AC1.4
CN1CC(C(NC(=O)[C@H]2C[C@H]3C[C@H]3N2C(=O)c2cccc(S(C)(=O)=O)c2)c2ccc(C(F)(F)F)cc2F)CC1=O (stereo partly drawn) [Example 519, (1R,3R,5R)-N-((2-fluoro-4-(trifluoromethyl)phenyl)(1-methyl-5-oxopyrrolidin-3-yl)methyl)-2-(3-(methylsulfonyl)benzoyl)-2-azabicyclo[3.1.0]hexane-3-carboxamide] | 2.367 µM
